Source: PMC5603227 (ChemMedChem, 2017)
≈ marks a conversion by molar mass, not a printed value.

Tests used:
Format in all cases: cell-based, Mycobacterium tuberculosis
[1] = tested on: Rifampicin resistant strain derived from H37Rv Mtb, ropB mutant (S522L)
[2] = tested on: Isoniazid resistant strain derived from H37Rv Mtb, katG mutant (Y155*)
[3] = tested on: Rifampicin resistant strain ACTCC35838; assay: microbe, parasite or virus in culture; conditions: for MIC: Mycobacterium tuberculosis, ACTCC35838, read-out: MIC RIF res2
[4] = tested on: Isoniazid resistant strain ACTCC35822; assay: microbe, parasite or virus in culture; conditions: for MIC: Mycobacterium tuberculosis, ACTCC35822, read-out: MIC INH res2
[5] = tested on: Fluoroquinolone resistant strain derived from H37Rv Mtb, gyrA mutant (D94N)

Compound | MIC RIF res1 [1] | MIC INH res1 [2] | MIC RIF res2 ([3]; ACTCC35838) | MIC INH res2 ([4]; ACTCC35822) | MIC FQ res [5] | MIC [3] | MIC [4]
Levoflaxacin [reference compound] | 3.43 µM | 3.97 µM | 3.83 µM | 5.83 µM | 91 µM | – | –
NNC(=O)c1ccncc1 [INH, Isoniazid, reference compound] | 0.160 µM (≈ 0.0219 µg/mL) | >200 µM | – | – | 0.34 µM (≈ 0.0466 µg/mL) | 0.37 µM (≈ 0.0507 µg/mL) | > 200 µM
Cc1cn2c(C(=O)NCc3ccc(S(F)(F)(F)(F)F)cc3)c(C)nc2s1 [Compound 19, 2,6-Dimethyl-N-(4-(pentafluoro-λ^6-sulfanyl)benzyl)imidazo[2,1-b]thiazole-5-carboxamide] | 0.26 µM (≈ 0.107 µg/mL) | 0.60 µM (≈ 0.247 µg/mL) | – | – | 0.33 µM (≈ 0.136 µg/mL) | 0.64 µM (≈ 0.263 µg/mL) | 0.39 µM (≈ 0.16 µg/mL)
CO[C@H]1/C=C/O[C@@]2(C)Oc3c(C)c(O)c4c(O)c(c(/C=N/N5CCN(C)CC5)c(O)c4c3C2=O)NC(=O)/C(C)=C\C=C\[C@H](C)[C@H](O)[C@@H](C)[C@@H](O)[C@@H](C)[C@H](OC(C)=O)[C@@H]1C [RIF, Rifampicin, reference compound] | 3.2 µM (≈ 2.63 µg/mL) | 0.027 µM (≈ 0.0222 µg/mL) | – | – | 0.043 µM (≈ 0.0354 µg/mL) | > 50 µM | 0.013 µM (≈ 0.0107 µg/mL)
Cc1ccn2c(C(=O)NCc3cccc(S(F)(F)(F)(F)F)c3)c(C)nc2c1 [Compound 14, 2,7-Dimethyl-N-(3-(pentafluoro-λ^6-sulfanyl)benzyl)imidazo[1,2-a]pyridine-3-carboxamide] | 1.3 µM (≈ 0.527 µg/mL) | 3.4 µM (≈ 1.38 µg/mL) | – | – | 2.5 µM (≈ 1.01 µg/mL) | 0.13 µM (≈ 0.0527 µg/mL) | 4 µM (≈ 1.62 µg/mL)
CCc1nc2ccc(Cl)cn2c1C(=O)NCc1ccc(S(F)(F)(F)(F)F)cc1 [Compound 17, 6-Chloro-2-ethyl-N-(4-(pentafluoro-λ^6-sulfanyl)benzyl)imidazo[1,2-a]pyridine-3-carboxamide] | 0.0089 µM (≈ 0.00391 µg/mL) | 0.051 µM (≈ 0.0224 µg/mL) | – | – | 0.083 µM (≈ 0.0365 µg/mL) | 0.022 µM (≈ 0.00968 µg/mL) | 0.021 µM (≈ 0.00924 µg/mL)
CCc1nc2ccc(Cl)cn2c1C(=O)NCc1cccc(S(F)(F)(F)(F)F)c1 [Compound 18, 6-Chloro-2-ethyl-N-(3-(pentafluoro-λ^6-sulfanyl)benzyl)imidazo[1,2-a]pyridine-3-carboxamide] | 1.5 µM (≈ 0.66 µg/mL) | 2.9 µM (≈ 1.28 µg/mL) | – | – | 2.9 µM (≈ 1.28 µg/mL) | 0.5 µM (≈ 0.22 µg/mL) | 2.7 µM (≈ 1.19 µg/mL)
Cc1ccn2c(C(=O)NCc3ccc(S(F)(F)(F)(F)F)cc3)c(C)nc2c1 [Compound 13, 2,7-Dimethyl-N-(4-(pentafluoro-λ^6-sulfanyl)benzyl)imidazo[1,2-a]pyridine-3-carboxamide] | 0.079 µM (≈ 0.032 µg/mL) | 0.070 µM (≈ 0.0284 µg/mL) | – | – | 0.36 µM (≈ 0.146 µg/mL) | 0.52 µM (≈ 0.211 µg/mL) | 0.24 µM (≈ 0.0973 µg/mL)
Cc1ccc2nc(C)c(C(=O)NCc3cccc(S(F)(F)(F)(F)F)c3)n2c1 [Compound 16, 2,6-Dimethyl-N-(3-(pentafluoro-λ^6-sulfanyl)benzyl)imidazo[1,2-a]pyridine-3-carboxamide] | 0.35 µM (≈ 0.142 µg/mL) | 3.1 µM (≈ 1.26 µg/mL) | – | – | 2.7 µM (≈ 1.09 µg/mL) | 7.2 µM (≈ 2.92 µg/mL) | 2.4 µM (≈ 0.973 µg/mL)
Cc1ccc2nc(C)c(C(=O)NCc3ccc(S(F)(F)(F)(F)F)cc3)n2c1 [Compound 15, 2,6-Dimethyl-N-(4-(pentafluoro-λ^6-sulfanyl)benzyl)imidazo[1,2-a]pyridine-3-carboxamide] | 0.0060 µM (≈ 0.00243 µg/mL) | 0.044 µM (≈ 0.0178 µg/mL) | – | – | 0.021 µM (≈ 0.00851 µg/mL) | 0.016 µM (≈ 0.00649 µg/mL) | 0.011 µM (≈ 0.00446 µg/mL)
